Entries after “also recorded” stand apart in the source; their conditions may differ.
Assays:
Assay type in all cases: cell-based
HeLa cells [1] = test: Translation activity of NanoLuc luciferase mRNA (capped with cap analog, reverse-phase HPLC purified) lipofected into HeLa cells (FIG. 30, 31)
Method: In (A) of the figure, a cap analog compound was added, a NanoLuc luciferase mRNA (650-base-long) was transcriptionally synthesized using T7 RNA polymerase, and the transcription reaction was analyzed by denaturing polyacrylamide gel (5%, containing 7.5 M urea as a denaturant) electrophoresis. The composition of the transcription reaction liquid and the reaction conditions are shown below.
15 ng/μL dsDNA transcription template (PCR product of 676-bp containing T7 promoter sequence 5′TAATACGACTCACTATAG3′-(SEQ ID NO: 1) and containing a NanoLuc luciferase gene coding region derived from a pNL1.1 TK vector (Promega)), 2 mM ATP, 2 mM UTP, 2 mM CTP, 2 mM GTP or [0.5 mM GTP+2 mM Cap Analog], 40 mM Tris-HCl (pH 8.0), 8 mM MgCl2, 2 mM spermidine, 5 mM DTT, 10 units/μL T7 RNA polymerase (Takara Bio Inc.).
FIG. 30 is a diagram showing the evaluation of the translation activity of a NanoLuc luciferase mRNA after reverse-phase HPLC isolation and purification. The activity was indicated with the expression level of the mRNA prepared without addition of the cap analog being 1.
FIG. 31 is a diagram showing the evaluation of the translation activity of a NanoLuc luciferase mRNA after reverse-phase HPLC isolation and purification. The activity was indicated with the expression level of the mRNA prepared without addition of the cap analog being 1. […]

JAWS II cells = test: Translation activity of Luc2 mRNA transcriptionally synthesized using a cap analog, JAWS II cells (FIG. 38); settings: lipofection, after 24 hours, versus Tri_1 (CleanCap Reagent AG structure)
Method: (§1) An RNA was transcriptionally synthesized with T7 RNA polymerase using a double-stranded DNA as a template. The double-stranded DNA of the template was obtained by amplifying pSP73-a-luc2 (described at the end of the experimental section) encoding the Luc2 gene by a PCR reaction using KOD-Plus-Neo (TOYOBO), Fw primer (cgcgttggccgattcatt: SEQ ID NO: 3), Rev primer ([…]: SEQ ID NO: 4) (1.0 ng/μL DNA vector, 1×KOD-Plus-Neo buffer, 0.2 mM dNTPs, 0.3 μM primers, 1.5 mM MgSO4, 0.02 units/μL polymerase). […]
(§2) Deprotection by photoirradiation: The RNA solution was added to a transparent 96-multiwell plate, and irradiated with 365 nm light at a quantity of light of 4 mW/cm^2 for 15 minutes using a MAX-305 light source device (Asahi Spectra Co., Ltd.). […]
FIG. 38 is a diagram showing the result of evaluation of translation activity in JAWS II cells of an RNA transcriptionally synthesized using a cap analog. […] After 24 hours, the cells were lysed and the luminescence of firefly luciferase was measured. […]
Evaluation of intracellular translation activity (JAWS II cells): JAWS II cells (ATCC) were cultivated (37° C., 5% CO2) in Minimum Essential Medium α(MEM α; Thermo Fisher SCIENTIFIC) with addition of 10% fetal bovine serum (FBS; Invitrogen) and GM-CSF (5 ng/mL). […] Luminescence was measured using ONE-Glo (registered trademark) luciferase assay (registered trademark) (Promega).

[2] = system: NF-κB reporter (Luc)-HEK 293 cells; test: Evaluation of intracellular immune response, NF-κB reporter luciferase assay (FIG. 43, 45); settings: FIG. 45; HEK 293 NF-kB cells, 50 ng and 100 ng mRNA, 24 hours
Method: NF-κB reporter (Luc)-HEK 293 cells (BPS Bioscience Inc.) were cultivated (37° C., 5% CO2) in a Dulbecco's modified Eagle's medium (DMEM; WAKO) with addition of 10% fetal bovine serum (FBS; Invitrogen), 100 μg/ml of Hygromycin B. The day before transfection, NF-κB reporter (Luc)-HEK 293 cells were seeded in a 48-well plate (7.5×10^4 cells/well). The next day, the medium was removed and replaced with 225 μL/well Opti-MEM (registered trademark) (Thermo Fisher SCIENTIFIC). 0.375 μL Lipofectamine (registered trademark) Messenger MAX (registered trademark) and 12.5 ng mRNA (DiPure) were diluted in 25 μL Opti-MEM (registered trademark) and introduced into cells. After incubation at 37° C. for 5 hours, 50 μL/well 1× Cell Lysis Buffer (Promega) was added to lyse the cells. Luminescence was measured using ONE-Glo (registered trademark) luciferase assay (registered trademark) (Promega). The protein amount was quantified using Pierce (registered trademark) BCA Protein Assay Kit (Thermo Fisher SCIENTIFIC), and the luminescence value was corrected by the number of cells.
NF-κB reporter (Luc)-HEK 293 cells (BPS Bioscience Inc.) were cultivated (37° C., 5% CO2) in a Dulbecco's modified Eagle's medium (DMEM; WAKO) with addition of 10% fetal bovine serum (FBS; Invitrogen), 100 μg/ml of Hygromycin B. The day before transfection, NF-κB reporter (Luc)-HEK 293 cells were seeded in a 48-well plate (1.0×10^5 cells/well). The next day, the medium was removed and replaced with 240 μL/well Opti-MEM (registered trademark) (Thermo Fisher SCIENTIFIC). 0.15 μL Lipofectamine (registered trademark) Messenger MAX (registered trademark) and 100 ng mRNA were diluted in 10 μL Opti-MEM (registered trademark) and introduced into cells. After incubation at 37° C. for 24 hours, 50 μL/well 1× Cell Lysis Buffer (Promega) was added to lyse the cells. Luminescence was measured using ONE-Glo (registered trademark) luciferase assay (registered trademark) (Promega). The protein amount was quantified using Pierce (registered trademark) BCA Protein Assay Kit (Thermo Fisher SCIENTIFIC), and the luminescence value was corrected by the number of cells.

HeLa cells [3] = test: Translation activity of Luc2 mRNA transcriptionally synthesized using a cap analog, HeLa cells (FIG. 37); settings: lipofection, after 24 hours, versus Tri_1 (CleanCap Reagent AG structure)
Method: as §1, §2
FIG. 37 is a diagram showing the result of evaluation of translation activity in a HeLa cell of RNAs transcriptionally synthesized using a cap analog. […] After 24 hours, the cells were lysed and the luminescence of firefly luciferase was measured. […]
HeLa cells (RIKEN Cell Bank) were cultivated (37° C., 5% CO2) in Dulbecco's modified Eagle's medium (DMEM; WAKO) with addition of 10% fetal bovine serum (FBS; Invitrogen). […] Luminescence was measured using ONE-Glo (registered trademark) luciferase assay (registered trademark) (Promega).

C[n+]1cn([C@@H]2O[C@H](COP(=O)(O)OP(=O)([O-])OP(=O)(O)OC[C@H]3O[C@@H](n4cnc5c(=O)[nH]c(N)nc54)C(O)[C@H]3O)[C@H](O)C2OCOC(c2ccccc2[N+](=O)[O-])C(C)(C)C)c2nc(N)nc(O)c21 (mixture of isomers) [Cap Analog_2, P1-{N^7-Methyl-2′-O-[2,2-dimethyl-(R/S)-1-(2-nitrophenyl)propyloxy]methylguanosin-5′-yl} P3-guanosin-5′-yl triphosphate]
translation activity compared with mRNA prepared using ARCA cap analog (HeLa cells [1]; FIG. 31, mRNA 5 ng/well, cultivated 23 hours): higher translation activity compared to the RNA capped with ARCA

P1-(N^2-tBu-nitrobenzyloxycarbonyl-N^7-methylguanosin-5′-yl) P3-guanosin-5′-yl triphosphate [Cap Analog_1]
translation activity (amount of expressed NanoLuc luciferase; expression level of mRNA prepared without cap analog being 1) (HeLa cells [1]; FIG. 30, mRNA 20 ng/well, cultivated 7 hours, before and after photoirradiation/deprotection): does not show high translation activity unless it is irradiated with light and deprotected; also recorded: can completely inhibit translation activity in the protected state

COC1[C@@H](OP(=O)([O-])OC[C@H]2O[C@@H](n3cnc4c(=O)[nH]c(N)nc43)C(O)[C@H]2O)[C@@H](COP(=O)([O-])OP(=O)([O-])OP(=O)([O-])OC[C@H]2O[C@@H](n3c[n+](C)c4c([O-])nc(N)nc43)C(OCOC(c3ccccc3[N+](=O)[O-])C(C)(C)C)[C@H]2O)O[C@H]1n1cnc2c(N)ncnc21.[Na+].[Na+].[Na+].[Na+] (some centres unmarked) [TriPure_1, Nb-^m7GpppA(2′OCH3)pG]
translation activity relative to Tri_1 (firefly luciferase luminescence) (JAWS II cells): about 24 times | intracellular immune response (NF-κB reporter luminescence) [2]: lower immune response than conventional mRNAs synthesized using ARCA | translation activity relative to Tri_1 (firefly luciferase luminescence) (HeLa cells [3]): about 2 times

Reference: US20240327444A1, “Method for Purifying Nucleotides, Device for Purifying Nucleotides, Hy-Drophobic Reagent, and Hydrophobic Substrate” (Japan Science and Technology Agency, priority 2021, published 2024)
